≈ marks a conversion by molar mass, not a printed value. Entries after “also recorded” stand apart in the source; their conditions may differ.
Tests used:
blood plasma [1] = conditions: "Taurolin", Bruckner and Pfirrmann 1985; cited from earlier work
[2] = system: blood coagula on the artificial surface; assay: deposition of blood coagula on taurolin-contacted artificial surface in vivo; conditions: after contact of synthetic resin or metal surface with taurolin, implantation in organism with blood flow
From the text: Therefore, this coagulation action can serve for the use of the taurolin for the treatment of surfaces of medical apparatus which are temporarily introduced into the blood stream, such as e.g. vein catheters (which, untreated, tend to blockage due to blood coagula which again represents a breeding place for bacteria, whereby the danger of a sepsis is brought about). The treatment of the apparatus can be carried out e.g. with an aqueous taurolin solution, especially a 1% aqueous taurolin solution. By means of an intermittent rinsing of vascular catheters, it is, in this way e.g. possible to prevent the coagula formation on the catheter tips.

coagulation factor IX = assay: coagulation factor analysis in plasma; assay type: biochemical, human
coagulation factor II = assay: coagulation factor analysis in plasma; assay type: biochemical, human
[3] = system: pooled plasma of various experimental persons; assay: Quick test on pooled plasma mixed with taurolin; assay type: biochemical, human; conditions: for Quick test (%): 30 minutes
Protocol: (§1) Therefore, in comparison with known anti-coagulants, the use of taurolin has the advantage that a sufficient blood coagulatability always still remains and, therefore, an overdosing is not possible.
(§2) Samples of, in each case, 5 ml. of a pooled plasma of various experimental persons were mixed with increasing amounts of taurolin, namely, with amounts of 0 (1), 10 (2), 20 (3), 30 (4), 40 (5) and 50 (6) mg. of taurolin/5 ml. plasma (the figures given in brackets give the sample numbers).
(§3) The Quick test and the PTT test was carried out for the samples 1 to 6 and the following results (30 minutes) obtained (Table 1): […]

solubility = assay type: physicochemical; conditions: 50 mg./5 ml. blood plasma corresponds to a 1% solution; read-out: solubility limit
coagulation factor XII = biological target: T1, coagulation factor XII (Homo sapiens, UniProt P00748); assay: coagulation factor analysis in plasma; assay type: biochemical
T1 construct: clotting factor activity assay
T1 sequence (P00748 20-615): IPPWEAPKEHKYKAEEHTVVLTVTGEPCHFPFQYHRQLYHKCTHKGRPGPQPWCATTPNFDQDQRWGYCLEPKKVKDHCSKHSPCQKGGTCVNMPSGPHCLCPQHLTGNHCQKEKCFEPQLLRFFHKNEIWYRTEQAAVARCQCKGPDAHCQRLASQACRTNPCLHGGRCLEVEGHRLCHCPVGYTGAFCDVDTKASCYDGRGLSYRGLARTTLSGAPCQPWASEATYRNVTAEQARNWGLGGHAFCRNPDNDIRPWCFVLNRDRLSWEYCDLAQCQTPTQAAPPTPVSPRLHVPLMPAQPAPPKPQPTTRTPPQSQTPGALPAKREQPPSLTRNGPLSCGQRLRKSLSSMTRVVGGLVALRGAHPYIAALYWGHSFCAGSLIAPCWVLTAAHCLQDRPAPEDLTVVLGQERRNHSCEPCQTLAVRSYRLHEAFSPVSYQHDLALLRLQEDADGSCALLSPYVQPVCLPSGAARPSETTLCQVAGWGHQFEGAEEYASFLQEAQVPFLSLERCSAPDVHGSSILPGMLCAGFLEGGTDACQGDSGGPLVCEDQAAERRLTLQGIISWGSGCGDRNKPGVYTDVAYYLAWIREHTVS

[4] = cited from earlier work
coagulation factor VII = assay: coagulation factor analysis in plasma; assay type: biochemical, human
[5] = system: pooled plasma of various experimental persons; assay: PTT test on pooled plasma mixed with taurolin; assay type: biochemical, human; conditions: for PTT: 30 minutes
Protocol: as §1, §2, §3

coagulation factor XI = assay: coagulation factor analysis in plasma; assay type: biochemical, human
coagulation factor V = assay: coagulation factor analysis in plasma; assay type: biochemical, human
coagulation factor X = assay: coagulation factor analysis in plasma; assay type: biochemical, human
coagulation factor VIII = assay: coagulation factor analysis in plasma; assay type: biochemical, human
blood plasma [6] = assay: suppression of blood coagulation on addition to blood plasma; assay type: biochemical, human; conditions: 5 ml. pooled plasma, up to max. 50 mg.
Protocol: as §1, §2

fresh blood = assay: fibrin deposition on taurolin-treated cellulose acetate foils in contact with fresh blood; set-up: species or system human
antithrombin III = assay: function of antithrombin III; assay type: biochemical
[7] = 10 mg. taurolin/5 ml. plasma (sample 2)
[8] = 20 mg. taurolin/5 ml. plasma (sample 3)
[9] = 30 mg. taurolin/5 ml. plasma (sample 4)
[10] = 40 mg. taurolin/5 ml. plasma (sample 5)
[11] = 50 mg. taurolin/5 ml. plasma (sample 6)
[12] = maximum possible dosaging in the blood

For `O=S1(=O)CCN(CN2CCS(=O)(=O)NC2)CN1` [taurolin, 4,4'-Methylene-bis-(tetrahydro-2H-1,2,4-thiadiazine-1,1-dioxide)], the “influence on blood coagulation as stated in the literature” value (blood plasma [1]) is given as “does not influence the blood coagulation”, the “deposition of blood coagula on the artificial surface in vivo” value [2] is given as “continuously effectively prevents the deposition of blood coagula; also recorded: effectively continuously prevents the deposition of blood coagula” and the “coagulation factor IX” value (coagulation factor IX; [7]) is given as 153%. The “coagulation factor IX” value (coagulation factor IX; [8]) was 81%, the “coagulation factor IX” value (coagulation factor IX; [9]) was 63% and the “coagulation factor IX” value (coagulation factor IX; [10]) was 65%. For the same molecule, the “coagulation factor IX” value (coagulation factor IX; [11]) was 68%, the “coagulation factor II” value (coagulation factor II; [7]) was 96% and the “coagulation factor II” value (coagulation factor II; [8]) was 87%. For the same molecule, the “coagulation factor II” value (coagulation factor II; [9]) was 90%, the “coagulation factor II” value (coagulation factor II; [10]) was 75% and the “coagulation factor II” value (coagulation factor II; [11]) was 74%. For the same molecule, the “Quick test (%)” value [3, 7] was 65%, the “Quick test (%)” value [3, 8] was 53% and the “Quick test (%)” value [3, 9] was 44%. For the same molecule, the “Quick test (%)” value [3, 10] was 39%, the “Quick test (%)” value [3, 11] was 35% and the “Quick value (lowest reached)” value [3, 12] was at least 20%. For the same molecule, the solubility (solubility) was 10000 µg/mL (≈ 35.2 mM), the “direct action on the Factor XII of the coagulation system” value (coagulation factor XII) was “marked direct action” and the activity at 2000 µg/mL (coagulation factor XII; human, 10 mg. taurolin/5 ml. plasma (sample 2)) was 177%. For the same molecule, the activity at 4000 µg/mL (coagulation factor XII; human, 20 mg. taurolin/5 ml. plasma (sample 3)) was 77%, the activity at 6000 µg/mL (coagulation factor XII; human, 30 mg. taurolin/5 ml. plasma (sample 4)) was 64% and the activity at 8000 µg/mL (coagulation factor XII; human, 40 mg. taurolin/5 ml. plasma (sample 5)) was 55%. For the same molecule, the activity at 10000 µg/mL (coagulation factor XII; human, 50 mg. taurolin/5 ml. plasma (sample 6)) was 61%, the solubility in water [4] was “about 1%” and the “coagulation factor VII” value (coagulation factor VII; [7]) was 79%. The “coagulation factor VII” value (coagulation factor VII; [8]) was 74%, the “coagulation factor VII” value (coagulation factor VII; [9]) was 74% and the “coagulation factor VII” value (coagulation factor VII; [10]) was 77%. For the same molecule, the “coagulation factor VII” value (coagulation factor VII; [11]) was 73%, the “PTT” value [5, 7] was 38.0 s and the “PTT” value [5, 8] was 43.0 s. For the same molecule, the “PTT” value [5, 9] was 48.8 s, the “PTT” value [5, 10] was 55.9 s and the “PTT” value [5, 11] was 61.8 s. For the same molecule, the “PTT value (highest reached)” value [5, 12] was at most 60 s, the “coagulation factor XI” value (coagulation factor XI; [7]) was 301% and the “coagulation factor XI” value (coagulation factor XI; [8]) was 197%. The “coagulation factor XI” value (coagulation factor XI; [9]) was 140%, the “coagulation factor XI” value (coagulation factor XI; [10]) was 83% and the “coagulation factor XI” value (coagulation factor XI; [11]) was 47%. The “coagulation factor V” value (coagulation factor V; [7]) was 121%, the “coagulation factor V” value (coagulation factor V; [8]) was 110% and the “coagulation factor V” value (coagulation factor V; [9]) was 92%. For the same molecule, the “coagulation factor V” value (coagulation factor V; [10]) was 81%, the “coagulation factor V” value (coagulation factor V; [11]) was 79% and the “coagulation factor X” value (coagulation factor X; [7]) was 75%. For the same molecule, the “coagulation factor X” value (coagulation factor X; [8]) was 65%, the “coagulation factor X” value (coagulation factor X; [9]) was 56% and the “coagulation factor X” value (coagulation factor X; [10]) was 53%. For the same molecule, the “coagulation factor X” value (coagulation factor X; [11]) was 50%, the “coagulation factor VIII” value (coagulation factor VIII; [7]) was 48% and the “coagulation factor VIII” value (coagulation factor VIII; [8]) was 21%. The “coagulation factor VIII” value (coagulation factor VIII; [9]) was 13%, the “coagulation factor VIII” value (coagulation factor VIII; [10]) was 6% and the “coagulation factor VIII” value (coagulation factor VIII; [11]) was 6%. For the same molecule, the “suppression of blood coagulation” value (blood plasma [6]) was “not completely suppressed”, the “blood coagulation or fibrin deposition on the wall” value (fresh blood; cellulose acetate foil contacted with taurolin/blood plasma mixture (taurolin 1% in plasma), rinsed, fresh blood 30 minutes at 37° C.) was “no blood coagulation or fibrin deposition on the wall” and the “fibrin fibre deposition on the surface (electron raster photographs)” value (fresh blood; cellulose acetate foil treated with 15 aqueous solution of taurolin 30 minutes at 37° C., then fresh blood 30 minutes at 37° C.) was “no fibrin fibre deposition on the surface could be ascertained”. For the same molecule, the “function of antithrombin III” value (antithrombin III) was “inhibits dependent upon concentration”.

With heparin the “suppression of blood coagulation” value (blood plasma [6]) was “completely suppressed”.

Source: patent US5077281A, “Novel use of taurolin” (priority 1985, dated 1991)
